Type in all cases: cell-based
For one assay, the target named is T1, alpha 2B receptor (Homo sapiens, UniProt P18089).
T1 construct: expressed in transfected cells; host or cells: NIH-3T3 cells
T1 sequence (P18089 1-450): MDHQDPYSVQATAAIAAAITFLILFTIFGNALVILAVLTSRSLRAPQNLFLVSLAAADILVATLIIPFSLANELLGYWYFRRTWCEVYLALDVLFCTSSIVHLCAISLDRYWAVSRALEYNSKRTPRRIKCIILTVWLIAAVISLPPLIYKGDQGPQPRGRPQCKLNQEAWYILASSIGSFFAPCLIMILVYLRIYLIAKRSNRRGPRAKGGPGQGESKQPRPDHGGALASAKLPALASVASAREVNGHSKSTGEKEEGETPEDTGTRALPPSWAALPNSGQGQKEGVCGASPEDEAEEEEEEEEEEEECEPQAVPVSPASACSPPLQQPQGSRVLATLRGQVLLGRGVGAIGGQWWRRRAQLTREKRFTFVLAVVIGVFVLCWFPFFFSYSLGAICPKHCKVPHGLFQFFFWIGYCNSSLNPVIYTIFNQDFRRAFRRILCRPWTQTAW
As to the kind of experiment: RSAT (Receptor Selection and Amplification Technology) assay, alpha 2B. As to conditions: for Alpha 2B intrinsic activity (efficacy), value in parentheses: ratio of maximal effect to that of standard full agonist brimonidine (UK14304). As for the experimental part:
(§1) The RSAT assay measures a receptor-mediated loss of contact inhibition that results in selective proliferation of receptor-containing cells in a mixed population of confluent cells. The increase in cell number is assessed with an appropriate transfected marker gene such as β-galactosidase, the activity of which can be easily measured in a 96-well format. Receptors that activate the G protein, Gq, elicit this response. Alpha 2 receptors, which normally couple to Gi, activate the RSAT response when coexpressed with a hybrid Gq protein that has a Gi receptor recognition domain, called Gq/i5.
(§2) NIH-3T3 cells are plated at a density of 2×10^6 cells in 15 cm dishes and maintained in Dulbecco's modified Eagle's medium supplemented with 10% calf serum. One day later, cells are cotransfected by calcium phosphate precipitation with mammalian expression plasmids encoding p-SV-β-galactosidase (5-10 μg), receptor (1-2 μg) and G protein (1-2 μg). 40 μg salmon sperm DNA may also be included in the transfection mixture. Fresh media is added on the following day and 1-2 days later, cells are harvested and frozen in 50 assay aliquots. Cells are thawed and 100 μl added to 100 μl aliquots of various concentrations of drugs in triplicate in 96-well dishes. Incubations continue 72-96 hr at 37° C. After washing with phosphate-buffered saline, .E-backward.-galactosidase enzyme activity is determined by adding 200 μl of the chromogenic substrate (consisting of 3.5 mM o-nitrophenyl-beta-D-galactopyranoside and 0.5% nonidet P-40 in phosphate buffered saline), incubating overnight at 30° C. and measuring optical density at 420 nm. The absorbance is a measure of enzyme activity, which depends on cell number and reflects a receptor-mediated cell proliferation. The efficacy or intrinsic activity is calculated as a ratio of the maximal effect of the drug to the maximal effect of a standard full agonist for each receptor subtype. Brimonidine, also called UK14304, the chemical structure of which is shown below, is used as the standard agonist for the alpha 2A, alpha 2B and alpha 2C receptors.

In a further assay the target is T2, alpha 2C receptor (Homo sapiens, UniProt P18825).
T2 construct: expressed in transfected cells; host or cells: NIH-3T3 cells
T2 sequence (P18825 1-462): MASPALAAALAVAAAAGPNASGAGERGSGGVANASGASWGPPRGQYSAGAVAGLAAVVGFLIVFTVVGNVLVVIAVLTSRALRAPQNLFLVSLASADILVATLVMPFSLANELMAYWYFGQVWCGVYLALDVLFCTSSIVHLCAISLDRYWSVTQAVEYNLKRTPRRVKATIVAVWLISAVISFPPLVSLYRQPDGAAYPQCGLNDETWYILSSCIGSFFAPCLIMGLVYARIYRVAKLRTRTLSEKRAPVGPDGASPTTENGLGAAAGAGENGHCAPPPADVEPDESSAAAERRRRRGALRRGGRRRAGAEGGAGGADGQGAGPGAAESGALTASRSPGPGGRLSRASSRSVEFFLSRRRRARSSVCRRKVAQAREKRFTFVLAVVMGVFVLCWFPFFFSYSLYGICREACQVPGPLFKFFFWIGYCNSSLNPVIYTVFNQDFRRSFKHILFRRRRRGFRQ
As to the kind of experiment: RSAT (Receptor Selection and Amplification Technology) assay, alpha 2C. As to conditions: for Alpha 2C intrinsic activity (efficacy), value in parentheses: ratio of maximal effect to that of standard full agonist brimonidine (UK14304). As for the experimental part:
as §1, §2

The next assay addresses T3, alpha 2A receptor (Homo sapiens, UniProt P08913).
T3 construct: expressed in transfected cells; host or cells: NIH-3T3 cells
T3 sequence (P08913 1-465): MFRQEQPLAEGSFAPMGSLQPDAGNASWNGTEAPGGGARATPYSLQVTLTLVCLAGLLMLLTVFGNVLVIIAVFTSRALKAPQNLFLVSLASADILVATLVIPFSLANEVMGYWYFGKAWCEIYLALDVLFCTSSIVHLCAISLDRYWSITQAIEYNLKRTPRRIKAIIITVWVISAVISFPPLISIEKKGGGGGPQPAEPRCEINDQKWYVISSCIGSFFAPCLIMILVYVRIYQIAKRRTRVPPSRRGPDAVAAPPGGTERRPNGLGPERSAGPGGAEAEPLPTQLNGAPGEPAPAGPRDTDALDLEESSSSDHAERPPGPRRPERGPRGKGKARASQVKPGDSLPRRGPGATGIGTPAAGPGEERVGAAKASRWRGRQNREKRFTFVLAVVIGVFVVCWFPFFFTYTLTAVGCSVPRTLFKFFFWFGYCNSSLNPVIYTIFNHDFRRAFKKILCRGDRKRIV
As to the kind of experiment: RSAT (Receptor Selection and Amplification Technology) assay, alpha 2A. As to conditions: NIH-3T3 cells cotransfected with receptor and Gq/i5; ratio of maximal effect to that of standard full agonist brimonidine (UK14304).
Description: The compounds disclosed herein are agonists of alpha 2B/2C adrenergic receptors. […] 76, pp. 308-311 (incorporated herein by reference) and is also described below. Another reference pertinent to this assay is Conklin et al. (1993) Nature 363: 274-6, also incorporated herein by reference.
as §1, §2

[1] abbreviates: NIH-3T3 cells cotransfected with receptor and Gq/i5.
Where [2] appears, read: NIH-3T3 cells cotransfected with receptor and Gq/i5, read-out: Alpha 2B potency nM (EC50).

Where two headings read alike, the source gives them in different places.

As a reminder, the EC50 is the concentration at which the effect is half-maximal. For `Cc1cccc(C(Cc2ccccc2)c2c[nH]cn2)c1C` (stereo not shown), the EC50 at alpha 2B receptor turned out to be 2.09 nM; at alpha 2C receptor, 26 nM. Moreover, on alpha 2B receptor (setting [1]), the “Alpha 2B intrinsic activity (efficacy), value in parentheses” value (from here on “Alpha 2B intrinsic activity (efficacy)”) came out at 1.01. In addition, the “Alpha 2C intrinsic activity (efficacy), value in parentheses” value (“Alpha 2C intrinsic activity (efficacy)” for short) on alpha 2C receptor (setting [1]) is “.36”. The “Alpha 2A intrinsic activity (efficacy), value in parentheses” value (“Alpha 2A intrinsic activity (efficacy)” for short) at alpha 2A receptor is “No Data (.28)”.
Take `Clc1cccc(C(Cc2ccccc2)c2c[nH]cn2)c1Cl` (stereo not shown): at alpha 2B receptor (setting [1]), the “Alpha 2B intrinsic activity (efficacy)” value is “.97”. For the same compound, the EC50 was 8.4 nM at alpha 2B receptor (setting [2]); 41 nM on alpha 2C receptor (NIH-3T3 cells cotransfected with receptor and Gq/i5, read-out: Alpha 2C potency nM (EC50)). The “Alpha 2C intrinsic activity (efficacy)” value at alpha 2C receptor (setting [1]) is “.41”. In addition, the “Alpha 2A intrinsic activity (efficacy)” value on alpha 2A receptor is recorded as “No Data (.21)”.
For `Fc1cccc(C(Cc2ccccc2)c2c[nH]cn2)c1F` (stereo not shown), the “Alpha 2B intrinsic activity (efficacy)” value at alpha 2B receptor (setting [1]) is given as “.53”. Further, the EC50 at alpha 2B receptor (setting [2]) worked out at 4.4 nM. Besides, the “Alpha 2C intrinsic activity (efficacy)” value at alpha 2C receptor (setting [1]) is “No Data (.17)”. For the same compound, the “Alpha 2A intrinsic activity (efficacy)” value at alpha 2A receptor is listed as “No Data (.04)”.
For `Cc1ccccc1C(Cc1ccccc1)c1c[nH]cn1` (stereo not shown), in that order: “.69”, 101 nM, “No Data (.21)” and “No Data (.10)”.
Take `Fc1ccccc1C(Cc1ccccc1)c1c[nH]cn1` (stereo not shown): a half-maximal response on alpha 2B receptor (EC50) required 3.5 nM. For the same compound, the “Alpha 2B intrinsic activity (efficacy)” value at alpha 2B receptor (setting [1]) is “.43”. Further, the “Alpha 2C intrinsic activity (efficacy)” value on alpha 2C receptor (setting [1]) is on record as “No Data (.18)”. Also, the “Alpha 2A intrinsic activity (efficacy)” value at alpha 2A receptor is on record as “No Data (.04)”.
For `c1ccc(CC(c2ccccc2)c2c[nH]cn2)cc1` (stereo not shown), in that order: 2.8 nM, “.69”, “No Data (.10)” and “No Data (.05)”.
In the same order, the values of `c1ccc(CC(c2ccncc2)c2c[nH]cn2)cc1` (stereo not shown) are 66 nM, “.74”, “No Data (.09)” and “No Data (.02)”.
Take `Clc1cccc(/C(=C/c2ccccc2)c2c[nH]cn2)c1`: at alpha 2B receptor, a half-maximal response (EC50) required 7.8 nM. Also, the “Alpha 2B intrinsic activity (efficacy)” value on alpha 2B receptor (setting [1]) is recorded as “.80”. Besides, the “Alpha 2C intrinsic activity (efficacy)” value on alpha 2C receptor (setting [1]) is reported as “No Data (.19)”. Further, the “Alpha 2A intrinsic activity (efficacy)” value on alpha 2A receptor is “No Data (.09)”.

These data come from patent US8735438B2, “Substituted-aryl-2-phenylethyl-1H-imidazole compounds as subtype selective modulators of alpha 2B and/or alpha 2C adrenergic receptors” (Allergan, Inc., priority 2008, dated 2014).
